Assay results published in US20260083865A1, “PROSTATE SPECIFIC MEMBRANE ANTIGEN (PSMA) LIGANDS AND USE THEREOF” (priority 2022, published 2026).
Like-named read-outs stand apart in the source and are kept apart here. Numbered stars: 1 amine (or outer) side, 2 acyl side, 3 side chain; on linkers, the order of the positions; unused ones are H or OH. Bridge positions count the residues as written; N and C are the ends. Square brackets hold non-standard residues; d marks the D form. Side chains are listed from the residue outwards. Peptide text beside a SMILES is read from it. * marks the point of attachment. DOTA = O=C(O)CN1CCN(CC(=O)O)CCN(CC(=O)*)CCN(CC(=O)O)CC1; Phe(4-CF3) = N[C@@H](Cc1ccc(C(F)(F)F)cc1)C(=O)O; Phe(4-Cl) = N[C@@H](Cc1ccc(Cl)cc1)C(=O)O; Propanoyl(3-SO2NH2) = NS(=O)(=O)CCC(=O)*; Arg(Me) = CNC(=N)NCCC[C@H](N)C(=O)O; X1 = O=C(CC1CCN([*:1])CC1)[*:2]; Lys(Me) = CNCCCC[C@H](N)C(=O)O; Suc = O=C(CCC(=O)[*:2])[*:1]; Tle = CC(C)(C)[C@H](N)C(=O)O; 4Amb = NCc1ccc(C(=O)O)cc1; 4Abz = Nc1ccc(C(=O)O)cc1; Nle = CCCC[C@H](N)C(=O)O; NHCH2tBu = CC(C)(C)CN*; Aib = CC(C)(N)C(=O)O; Guanidino = N=C(N)N*; X8 = O=C(CC1CCNCC1)*

Columns and labels:
[1] = molecular target: T1, PSMA-expressing C4-2 cells (Homo sapiens, UniProt Q04609); assay: FACS binding assay (competition with 50 nM PSM-0183); conditions: C4-2 cells; for IC50: read-out: pIC50 [C4-2] CAT (converted)
T1 construct: PSMA-expressing C4-2 cells (ATCC, Cat. No. CRL-3314) were cultured in RPMI-1640; host or cells: C4-2 cells
T1 sequence (Q04609 whole entry): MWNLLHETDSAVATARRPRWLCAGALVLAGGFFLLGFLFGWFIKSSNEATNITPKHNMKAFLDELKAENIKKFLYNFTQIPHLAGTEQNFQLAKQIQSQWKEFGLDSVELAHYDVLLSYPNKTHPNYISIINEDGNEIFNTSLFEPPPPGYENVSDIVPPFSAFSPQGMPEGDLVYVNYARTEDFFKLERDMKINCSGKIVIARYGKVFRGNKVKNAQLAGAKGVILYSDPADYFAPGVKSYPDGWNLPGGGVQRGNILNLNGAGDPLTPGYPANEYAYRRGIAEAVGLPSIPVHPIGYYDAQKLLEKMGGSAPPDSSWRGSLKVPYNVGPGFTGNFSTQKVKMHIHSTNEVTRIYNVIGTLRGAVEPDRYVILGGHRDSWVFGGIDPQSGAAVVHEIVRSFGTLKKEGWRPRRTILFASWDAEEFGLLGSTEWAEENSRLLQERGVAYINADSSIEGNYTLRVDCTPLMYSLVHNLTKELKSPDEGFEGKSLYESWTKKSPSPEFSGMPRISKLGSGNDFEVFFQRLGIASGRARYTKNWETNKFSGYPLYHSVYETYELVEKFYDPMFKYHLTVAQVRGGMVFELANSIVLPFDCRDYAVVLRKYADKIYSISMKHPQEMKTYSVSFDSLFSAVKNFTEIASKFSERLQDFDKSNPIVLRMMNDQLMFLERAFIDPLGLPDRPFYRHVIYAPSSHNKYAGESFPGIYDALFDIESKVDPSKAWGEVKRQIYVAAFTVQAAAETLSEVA
Protocol: In order to determine binding of compounds according to the present invention to PSMA-expressing cells, a FACS binding assay was established.
PSMA-expressing C4-2 cells (ATCC, Cat. No. CRL-3314) were cultured in RPMI-1640 (Pan Biotech, Cat. No. P04-18050) including 10% fetal calf serum (Biochrom) and 100 U/ml penicillin and 100 μg/mL streptomycin (Sigma, Cat. No. P0781). Cells were detached with Accutase (Biolegend, Cat. No. BLD-423201) and washed in FACS buffer (PBS (Sigma, Cat. No. D8537) including 1% fetal calf serum). Cells were diluted in FACS buffer to a final concentration of 500,000 cells per mL. 200 μL of the cell suspension were transferred to a u-shaped non-binding 96-well plate (Greiner Bio-One, Cat. No. 650901) and cells were washed in ice-cold FACS buffer.
For IC50 determination, C4-2 cells were incubated with 50 nM PSM-0183 (Ac-Thr-Aib-Phe[Cys-Lys-Arg-Aib-Asn-Cys]-Tle-Thr-Asp-Ttds-Ttds-AF488N3K-NH2) in the presence of increasing concentrations of test compounds at 4° C. for 1 hour. After two wash steps with ice-cold FACS buffer, cells were analyzed in an Attune NxT flow cytometer. Median fluorescence intensities (MFI) of the FITC/AF488-channel were calculated by Attune NxT software. MFI values were plotted against peptide concentration and four parameter logistic (4PL) curve fitting and IC50/pIC50 calculations were performed using ActivityBase software (IDBS).

[2] = molecular target: T2, Fc-fusion protein of human PSMA (hPSMA-Fc) (Homo sapiens, UniProt Q04609); assay: Surface plasmon resonance assay (Biacore T200, single cycle kinetic); format: binding; conditions: for Kd: read-out: pKD CAT (converted)
T2 construct: purchased Acro Biosystems PSA-H5264
T2 sequence (Q04609 44-750 limits assumed): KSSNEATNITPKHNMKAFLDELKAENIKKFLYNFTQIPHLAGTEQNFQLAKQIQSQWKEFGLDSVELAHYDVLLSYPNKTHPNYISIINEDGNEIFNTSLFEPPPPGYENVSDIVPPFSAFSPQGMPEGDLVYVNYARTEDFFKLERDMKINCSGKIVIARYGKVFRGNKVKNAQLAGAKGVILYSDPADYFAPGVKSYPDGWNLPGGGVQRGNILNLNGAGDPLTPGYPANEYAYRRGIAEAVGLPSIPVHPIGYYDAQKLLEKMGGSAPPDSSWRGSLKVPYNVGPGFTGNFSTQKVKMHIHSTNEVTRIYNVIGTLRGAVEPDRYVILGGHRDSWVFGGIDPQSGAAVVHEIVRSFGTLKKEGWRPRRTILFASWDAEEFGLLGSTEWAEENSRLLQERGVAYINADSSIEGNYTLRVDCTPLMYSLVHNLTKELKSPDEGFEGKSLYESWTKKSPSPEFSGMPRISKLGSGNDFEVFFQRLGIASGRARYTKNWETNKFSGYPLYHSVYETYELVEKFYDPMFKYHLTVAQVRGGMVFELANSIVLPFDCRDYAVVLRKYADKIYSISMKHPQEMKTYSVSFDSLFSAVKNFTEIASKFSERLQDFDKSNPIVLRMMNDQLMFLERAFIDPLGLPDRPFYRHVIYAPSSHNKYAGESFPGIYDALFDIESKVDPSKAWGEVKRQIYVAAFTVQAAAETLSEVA
Protocol: Surface plasmon resonance (SPR) studies were performed using a Biacore™ T200 SPR system. Briefly, polarized light is directed towards a gold-labeled sensor surface, and minimum intensity reflected light is detected. The angle of reflected light changes as molecules bind and dissociate.
Fc-fusion protein of human PSMA (hPSMA-Fc, Acro Biosystems, Cat #PSA-H5264) was captured on a Fc-capture chip (Biacore™ CM5 sensor chip coated with ˜300 RU of an Fc-binding peptide). hPSMA-Fc was diluted in Running Buffer (HBST, 0.1% DMSO) to a final concentration of 100 nM and then flushed over the Fc-capture chip to immobilized ˜1000 RUs.
Stock solutions of test compounds were prepared by dissolving each compound in DMSO. DMSO stock solution were diluted 1:1000 in Running Buffer without DMSO. Further sequential dilutions were made with Running Buffer containing 0.1% DMSO. SPR binding analyses were performed in Single Cycle Kinetic (SCK) mode at 25° C. Flow cell coated with the Fc-binding peptide only served as reference flowcell. After each SCK run, hPSMA-Fc was removed with 10 mM glycine buffer, pH 1.5.
In between every three SCK measurements, a blank run with Running Buffer instead of test compound was included to correct for baseline drifts (double blanking method).
Table 5 describes the protocol steps for Fc-fusion target capturing and assessment of the binding kinetics.
For each test compound, SPR raw data in the form of resonance units (RU) were plotted as sensorgrams using the Biacore™ T200 control software. The signal from the blank sensorgram was subtracted from that of the test compound sensorgram (blank corrected). The blank corrected sensorgram was corrected for baseline drift by subtracting the sensorgram of a SCK run without the test compound (running buffer only). The dissociation constant (KD) was calculated from Blank-normalized SPR data using the 1:1 Langmuir binding model from the Biacore™ Insight Evaluation software. The pKD value (negative decadic logarithm of dissociation constant) was calculated using Microsoft Excel.

[3] = FACS binding, competition with 50 nM PSM-0183, category
[4] = SPR, hPSMA-Fc, single cycle kinetic, 25° C., category
[5] = pKD category for PSMA SPR activity assay, hPSMA-Fc, 25° C.

IC50 ([1]; pIC50 category of FACS binding) [nM] | Kd [2, 5] [nM] | Molecule | further results
 |  | C[C@@H](O)[C@H](NC(=O)[C@@H](NC(=O)[C@@H]1CSSC[C@H](NC(=O)[C@H](Cc2ccc(Cl)cc2)NC(=O)C(C)(C)NC(=O)CCS(N)(=O)=O)C(=O)N[C@@H](CCCCN)C(=O)N[C@@H](CCCNC(=N)N)C(=O)NC(C)(C)C(=O)N[C@@H](CC(N)=O)C(=O)N1)C(C)(C)C)C(=O)N1CCC(CC(=O)N[C@H](CCCCNC(=O)CN2CCN(CC(=O)O)CCN(CC(=O)O)CCN(CC(=O)O)CC2)C(N)=O)CC1 [PSM-0215, SaPr-Aib-Pcf-[Cys-Lys-Arg-Aib-Asn-Cys]-Tle-Thr-Cmp-lys(DOTA)-NH2] ({Propanoyl(3-SO2NH2)}-[Aib][Phe(4-Cl)]CKR[Aib]NC[Tle]T[X1][dK](DOTA)-NH2; disulfide 3-8) | IC50 [1, 3]: < 200 nM; Kd [2, 4]: 12.6 to 126 nM
< 200 | < 12.6 | CC(=O)N[C@H](C(=O)NC(C)(C)C(=O)N[C@@H](Cc1ccccc1)C(=O)N[C@H]1CSSC[C@@H](C(=O)N[C@H](C(=O)N[C@H](C(N)=O)[C@@H](C)O)C(C)(C)C)NC(=O)[C@H](CC(N)=O)NC(=O)[C@H](CCCCNC(=O)c2ccc(CNC(=O)CN3CCN(CC(=O)O)CCN(CC(=O)O)CCN(CC(=O)O)CC3)cc2)NC(=O)[C@H](CCCNC(=N)N)NC(=O)[C@H](CCCCN)NC1=O)[C@@H](C)O [PSM-0419, Ac-Thr-Aib-Phe-[Cys-Lys-Arg-Lys(DOTA-Pamb)-Asn-Cys]-Tle-Thr-NH2] (Ac-T[Aib]FCKRK([4Amb-DOTA])NC[Tle]T-NH2; disulfide 4-9) | 
 |  | InDOTA-Cmp-Thr-Aib-Pcf-[Cys-Lys(Me)-Arg(Me)-Aib-Asn-Cys]-Tle-NH2 [PSM-0519] | pIC50 [C4-2] CAT ([1]; pIC50 category of FACS binding): A (pIC50 values >6.7); pKD CAT [2, 5]: A (pKD values >7.9)
< 200 | < 12.6 | C[C@@H](O)[C@H](NC(=O)[C@@H](NC(=O)[C@@H]1CSSC[C@H](NC(=O)[C@H](Cc2ccc(Cl)cc2)NC(=O)C(C)(C)NC(=O)CC2CCN(C(=O)CN3CCN(CC(=O)O)CCN(CC(=O)O)CCN(CC(=O)O)CC3)CC2)C(=O)N[C@@H](CCCCN)C(=O)N[C@@H](CCC(=O)NC(=N)N)C(=O)NC(C)(C)C(=O)N[C@@H](CC(N)=O)C(=O)N1)C(C)(C)C)C(N)=O [PSM-0489, DOTA-Cmp-Aib-Pcf-[Cys-Lys-Gin (Gu)-Aib-Asn-Cys]-Tle-Thr-NH2] ({DOTA}-[X1][Aib][Phe(4-Cl)]CKE(Guanidino)[Aib]NC[Tle]T-NH2; disulfide 4-9) | 
< 200 | 12.6 to 126 | CNCCCC[C@@H]1NC(=O)[C@@H](NC(=O)[C@H](Cc2ccc(C(F)(F)F)cc2)NC(=O)C(C)(C)NC(=O)[C@@H](NC(=O)CC2CCN(C(=O)CN3CCN(CC(=O)O)CCN(CC(=O)O)CCN(CC(=O)O)CC3)CC2)[C@@H](C)O)CSSC[C@@H](C(=O)N[C@H](C(N)=O)C(C)(C)C)NC(=O)[C@H](CC(N)=O)NC(=O)C(C)(C)NC(=O)[C@H](CCCNC(=N)NC)NC1=O [PSM-0549, DOTA-Cmp-Thr-Aib-Ptf-[Cys-Lys(Me)-Arg(Me)-Aib-Ass-Cys]-Tle-NH2] ({DOTA}-[X1]T[Aib][Phe(4-CF3)]C[Lys(Me)][Arg(Me)][Aib]NC[Tle]-NH2; disulfide 5-10) | 
< 200 | < 12.6 | CC(=O)N[C@H](C(=O)NC(C)(C)C(=O)N[C@@H](Cc1ccccc1)C(=O)N[C@H]1CSSC[C@@H](C(=O)N[C@H](C(=O)N[C@H](C(N)=O)[C@@H](C)O)C(C)(C)C)NC(=O)[C@H](Cc2ccccc2)NC(=O)C(C)(C)NC(=O)[C@H](CCCNC(=N)N)NC(=O)[C@H](CCCCN)NC1=O)[C@@H](C)O [PSM-0541, Ac-Thr-Aib-Phe-[Cys-Lys-Arg-Aib-Phe-Cys]-Tle-NH2] (Ac-T[Aib]FCKR[Aib]FC[Tle]T-NH2; disulfide 4-9) | 
 |  | C[C@@H](O)[C@H](NC(=O)[C@@H](NC(=O)[C@@H]1CSSC[C@H](NC(=O)[C@H](Cc2ccccc2)NC(=O)C(C)(C)NC(=O)CCC(=O)O)C(=O)N[C@@H](CCCCN)C(=O)N[C@@H](CCCNC(=N)N)C(=O)NC(C)(C)C(=O)N[C@@H](CC(N)=O)C(=O)N1)C(C)(C)C)C(N)=O [PSM-0577, HO-Succinyl-Aib-Phe-[Cys-Lys-Arg-Aib-Asn-Cys]-Tle-Thr-NH2] (Suc-[Aib]FCKR[Aib]NC[Tle]T-NH2; disulfide 3-8) | IC50 ([1]; FACS binding, category): < 200 nM; Kd ([2]; PSMA SPR assay, category): 12.6 to 126 nM
< 200 | < 12.6 | C[C@@H](O)[C@H](NC(=O)CC1CCNCC1)C(=O)NC(C)(C)C(=O)N[C@@H](Cc1ccccc1)C(=O)N[C@H]1CSSC[C@@H](C(=O)N[C@H](C(=O)N[C@H](C(=O)N2CCC(CC(=O)N[C@H](CCCCNC(=O)CN3CCN(CC(=O)O)CCN(CC(=O)O)CCN(CC(=O)O)CC3)C(N)=O)CC2)[C@@H](C)O)C(C)(C)C)NC(=O)[C@H](CC(N)=O)NC(=O)C(C)(C)NC(=O)[C@H](CCCNC(=N)N)NC(=O)[C@H](CCCCN)NC1=O [PSM-0378, H-Cmp-Thr-Aib-Phe-[Cys-Lys-Arg-Aib-Asn-Cys]-Tle-Thr-Cmp-lys(DOTA)-NH2] (X8-T[Aib]FCKR[Aib]NC[Tle]T[X1][dK](DOTA)-NH2; disulfide 4-9) | 
 |  | CC(=O)N[C@H](C(=O)NC(C)(C)C(=O)N[C@@H](Cc1ccccc1)C(=O)N[C@H]1CSSC[C@@H](C(=O)NCC(C)(C)C)NC(=O)[C@H](CC(N)=O)NC(=O)C(C)(C)NC(=O)[C@H](CCCNC(=N)N)NC(=O)[C@H](CCCCN)NC1=O)[C@@H](C)O [PSM-0208, Ac-Thr-Aib-Phe-[Cys-Lys-Arg-Aib-Asn-Cys]-NHnPen] (Ac-T[Aib]FCKR[Aib]NC-NHCH2tBu; disulfide 4-9) | IC50 [1, 3]: 200 to 1260 nM; Kd [2, 4]: 126 to 501 nM
 |  | CCCC[C@@H]1NC(=O)[C@@H](NC(=O)[C@H](Cc2ccc(Cl)cc2)NC(=O)C(C)(C)NC(=O)[C@@H](NC(C)=O)[C@@H](C)O)CSSC[C@@H](C(=O)N[C@H](C(=O)N[C@H](C(N)=O)[C@@H](C)O)C(C)(C)C)NC(=O)[C@H](CC(N)=O)NC(=O)C(C)(C)NC(=O)[C@H](CCCNC(=N)NC(C)=O)NC1=O [PSM-0570, Ac-Thr-Aib-Pcf-[Cys-Nle-Arg(Ac)-Aib-Asn-Cys]-Tle-Thr-NH2] (Ac-T[Aib][Phe(4-Cl)]C[Nle]R(Ac)[Aib]NC[Tle]T-NH2; disulfide 4-9) | IC50 ([1]; FACS binding, category): < 200 nM; Kd ([2]; PSMA SPR assay, category): 12.6 to 126 nM

Molecule | IC50 ([1]; pIC50 category of FACS binding) [nM] | Kd [2, 5] [nM] | further results
CC(=O)N[C@H](C(=O)NC(C)(C)C(=O)N[C@@H](Cc1ccccc1)C(=O)N[C@H]1CSSC[C@@H](C(=O)N[C@H](C(=O)N[C@H](C(=O)Nc2ccc(C(=O)N[C@H](CCCCNC(=O)CN3CCN(CC(=O)O)CCN(CC(=O)O)CCN(CC(=O)O)CC3)C(N)=O)cc2)[C@@H](C)O)C(C)(C)C)NC(=O)[C@H](CC(N)=O)NC(=O)C(C)(C)NC(=O)[C@H](CCCNC(=N)N)NC(=O)[C@H](CCCCN)NC1=O)[C@@H](C)O [PSM-0471, Ac-Thr-Aib-Phe-[Cys-Lys-Arg-Aib-Asn-Cys]-Tle-Thr-Pab-lys(DOTA)-NH2] (Ac-T[Aib]FCKR[Aib]NC[Tle]T[4Abz][dK](DOTA)-NH2; disulfide 4-9) | < 200 | < 12.6 | 
